In patent US10167262B2, “Herbicidal substituted 3-arylpyrazoles” (FMC CORPORATION, priority 2014, dated 2019):

Legend:
Test in all cases: Test C pre-/postemergence greenhouse test, plant response rating 0-100
Assay type in all cases: in vivo
[1] = test system: pigweed (Amaranthus retroflexus)
In short: (§1)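 Visual rating vs controls after 13–15 d greenhouse; 0 = no effect, 100 = complete control. Pre: seeds in loam/sand, treated at planting. Post: seedlings 2–18 cm (1–4 leaf) in peat-based mix. Compounds in surfactant-containing non-phytotoxic solvent.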

[2] = test system: blackgrass (Alopecurus myosuroides)
In short: as §1

[3] = test system: ragweed (common ragweed, Ambrosia elatior)
In short: as §1

[4] = test system: velvetleaf (Abutilon theophrasti)
In short: as §1

[5] = test system: winter wheat (Triticum aestivum)
In short: as §1

[6] = test system: lambsquarters (Chenopodium album)
In short: as §1

soybean (Glycine max) = test system: soybean (Glycine max)
In short: as §1

[7] = test system: giant foxtail (Setaria faberii)
In short: as §1

[8] = test system: Italian ryegrass (Lolium multiflorum)
In short: as §1

[9] = test system: johnsongrass (Sorghum halepense)
In short: as §1

[10] = test system: large (Lg) crabgrass (Digitaria sanguinalis)
In short: as §1

[11] = test system: yellow nutsedge (Cyperus esculentus)
In short: as §1

corn (Zea mays) = test system: corn (Zea mays)
In short: as §1

[12] = Postemergence, 250 g ai/ha, scale 0 to 100
[13] = Postemergence, 500 g ai/ha, scale 0 to 100

Compound: CCOC(OCC)(c1cccs1)c1c[nH]nc1-c1cc(Cl)cc(Cl)c1 [Compound 27]
- Plant response rating (0 to 100), Pigweed ([1]; Postemergence, 62 g ai/ha): 80
- Plant response rating (0 to 100), Pigweed ([1]; Postemergence, 125 g ai/ha): 95
- Plant response rating, Pigweed [1, 12]: 100
- Plant response rating, Pigweed [1, 13]: 100
- Plant response rating, Pigweed ([1]; Preemergence, 62 g ai/ha): 98
- Plant response rating, Pigweed ([1]; Preemergence, 125 g ai/ha): 100
- Plant response rating, Pigweed ([1]; Preemergence, 250 g ai/ha): 100
- Plant response rating, Pigweed ([1]; Preemergence, 500 g ai/ha): 100
- Plant response rating (0 to 100), Blackgrass ([2]; Postemergence, 62 g ai/ha): 0
- Plant response rating, Blackgrass ([2]; Postemergence, 125 g ai/ha, scale 0 to 100): 5
- Plant response rating, Blackgrass [2, 12]: 0
- Plant response rating, Blackgrass [2, 13]: 0
- Plant response rating, Blackgrass ([2]; Preemergence, 62 g ai/ha): 20
- Plant response rating, Blackgrass ([2]; Preemergence, 125 g ai/ha): 0
- Plant response rating, Blackgrass ([2]; Preemergence, 250 g ai/ha): 50
- Plant response rating, Blackgrass ([2]; Preemergence, 500 g ai/ha): 0
- Plant response rating (0 to 100), Ragweed ([3]; Postemergence, 62 g ai/ha): 65
- Plant response rating (0 to 100), Ragweed ([3]; Postemergence, 125 g ai/ha): 75
- Plant response rating, Ragweed [3, 12]: 90
- Plant response rating, Ragweed [3, 13]: 75
- Plant response rating, Ragweed ([3]; Preemergence, 62 g ai/ha): 98
- Plant response rating, Ragweed ([3]; Preemergence, 125 g ai/ha): 70
- Plant response rating, Ragweed ([3]; Preemergence, 250 g ai/ha): 70
- Plant response rating, Ragweed ([3]; Preemergence, 500 g ai/ha): 100
- Plant response rating (0 to 100), Velvetleaf ([4]; Postemergence, 62 g ai/ha): 65
- Plant response rating (0 to 100), Velvetleaf ([4]; Postemergence, 125 g ai/ha): 70
- Plant response rating, Velvetleaf [4, 12]: 75
- Plant response rating, Velvetleaf [4, 13]: 75
- Plant response rating, Velvetleaf ([4]; Preemergence, 62 g ai/ha): 10
- Plant response rating, Velvetleaf ([4]; Preemergence, 125 g ai/ha): 40
- Plant response rating, Velvetleaf ([4]; Preemergence, 250 g ai/ha): 65
- Plant response rating, Velvetleaf ([4]; Preemergence, 500 g ai/ha): 60
- Plant response rating (0 to 100), Wheat ([5]; Postemergence, 62 g ai/ha): 0
- Plant response rating (0 to 100), Wheat ([5]; Postemergence, 125 g ai/ha): 0
- Plant response rating, Wheat [5, 12]: 0
- Plant response rating, Wheat [5, 13]: 0
- Plant response rating, Wheat ([5]; Preemergence, 62 g ai/ha): 0
- Plant response rating, Wheat ([5]; Preemergence, 125 g ai/ha): 0
- Plant response rating, Wheat ([5]; Preemergence, 250 g ai/ha): 0
- Plant response rating, Wheat ([5]; Preemergence, 500 g ai/ha): 0
- Plant response rating (0 to 100), Lambsquarters ([6]; Postemergence, 62 g ai/ha): 75
- Plant response rating (0 to 100), Lambsquarters ([6]; Postemergence, 125 g ai/ha): 95
- Plant response rating, Lambsquarters [6, 12]: 98
- Plant response rating, Lambsquarters [6, 13]: 98
- Plant response rating, Lambsquarters ([6]; Preemergence, 62 g ai/ha): 100
- Plant response rating, Lambsquarters ([6]; Preemergence, 125 g ai/ha): 100
- Plant response rating, Lambsquarters ([6]; Preemergence, 250 g ai/ha): 100
- Plant response rating, Lambsquarters ([6]; Preemergence, 500 g ai/ha): 100
- Plant response rating (0 to 100), Soybean (soybean (Glycine max); Postemergence, 62 g ai/ha): 0
- Plant response rating (0 to 100), Soybean (soybean (Glycine max); Postemergence, 125 g ai/ha): 0
- Plant response rating, Soybean (soybean (Glycine max); [12]): 0
- Plant response rating, Soybean (soybean (Glycine max); [13]): 0
- Plant response rating, Soybean (soybean (Glycine max); Preemergence, 62 g ai/ha): 0
- Plant response rating, Soybean (soybean (Glycine max); Preemergence, 125 g ai/ha): 0
- Plant response rating, Soybean (soybean (Glycine max); Preemergence, 250 g ai/ha): 40
- Plant response rating, Soybean (soybean (Glycine max); Preemergence, 500 g ai/ha): 0
- Plant response rating (0 to 100), Foxtail, Giant ([7]; Postemergence, 62 g ai/ha): 0
- Plant response rating (0 to 100), Foxtail, Giant ([7]; Postemergence, 125 g ai/ha): 0
- Plant response rating, Foxtail, Giant [7, 12]: 0
- Plant response rating, Foxtail, Giant [7, 13]: 0
- Plant response rating, Foxtail, Giant ([7]; Preemergence, 62 g ai/ha): 0
- Plant response rating, Foxtail, Giant ([7]; Preemergence, 125 g ai/ha): 0
- Plant response rating, Foxtail, Giant ([7]; Preemergence, 250 g ai/ha): 0
- Plant response rating, Foxtail, Giant ([7]; Preemergence, 500 g ai/ha): 0
- Plant response rating (0 to 100), Ryegrass, Italian ([8]; Postemergence, 62 g ai/ha): 5
- Plant response rating (0 to 100), Ryegrass, Italian ([8]; Postemergence, 125 g ai/ha): 0
- Plant response rating, Ryegrass, Italian [8, 12]: 5
- Plant response rating, Ryegrass, Italian [8, 13]: 5
- Plant response rating, Ryegrass, Italian ([8]; Preemergence, 62 g ai/ha): 0
- Plant response rating, Ryegrass, Italian ([8]; Preemergence, 125 g ai/ha): 0
- Plant response rating, Ryegrass, Italian ([8]; Preemergence, 250 g ai/ha): 0
- Plant response rating, Ryegrass, Italian ([8]; Preemergence, 500 g ai/ha): 0
- Plant response rating (0 to 100), Johnsongrass ([9]; Postemergence, 62 g ai/ha): 0
- Plant response rating (0 to 100), Johnsongrass ([9]; Postemergence, 125 g ai/ha): 0
- Plant response rating, Johnsongrass [9, 12]: 0
- Plant response rating, Johnsongrass [9, 13]: 10
- Plant response rating, Johnsongrass ([9]; Preemergence, 62 g ai/ha): 0
- Plant response rating, Johnsongrass ([9]; Preemergence, 125 g ai/ha): 0
- Plant response rating, Johnsongrass ([9]; Preemergence, 250 g ai/ha): 0
- Plant response rating, Johnsongrass ([9]; Preemergence, 500 g ai/ha): 0
- Plant response rating (0 to 100), Crabgrass, Large ([10]; Postemergence, 62 g ai/ha): 0
- Plant response rating (0 to 100), Crabgrass, Large ([10]; Postemergence, 125 g ai/ha): 0
- Plant response rating, Crabgrass, Large [10, 12]: 10
- Plant response rating, Crabgrass, Large [10, 13]: 10
- Plant response rating, Crabgrass, Large ([10]; Preemergence, 62 g ai/ha): 0
- Plant response rating, Crabgrass, Large ([10]; Preemergence, 125 g ai/ha): 0
- Plant response rating, Crabgrass, Large ([10]; Preemergence, 250 g ai/ha): 0
- Plant response rating, Crabgrass, Large ([10]; Preemergence, 500 g ai/ha): 0
- Plant response rating (0 to 100), Nutsedge, Yellow ([11]; Postemergence, 62 g ai/ha): 0
- Plant response rating (0 to 100), Nutsedge, Yellow ([11]; Postemergence, 125 g ai/ha): 0
- Plant response rating, Nutsedge, Yellow [11, 12]: 0
- Plant response rating, Nutsedge, Yellow [11, 13]: 0
- Plant response rating, Nutsedge, Yellow ([11]; Preemergence, 62 g ai/ha): 0
- Plant response rating, Nutsedge, Yellow ([11]; Preemergence, 125 g ai/ha): 0
- Plant response rating, Nutsedge, Yellow ([11]; Preemergence, 250 g ai/ha): 0
- Plant response rating, Nutsedge, Yellow ([11]; Preemergence, 500 g ai/ha): 0
- Plant response rating (0 to 100), Corn (corn (Zea mays); Postemergence, 62 g ai/ha): 0
- Plant response rating (0 to 100), Corn (corn (Zea mays); Postemergence, 125 g ai/ha): 0
- Plant response rating, Corn (corn (Zea mays); [12]): 0
- Plant response rating, Corn (corn (Zea mays); [13]): 0
- Plant response rating, Corn (corn (Zea mays); Preemergence, 62 g ai/ha): 0
- Plant response rating, Corn (corn (Zea mays); Preemergence, 125 g ai/ha): 0
- Plant response rating, Corn (corn (Zea mays); Preemergence, 250 g ai/ha): 0
- Plant response rating, Corn (corn (Zea mays); Preemergence, 500 g ai/ha): 0
